# Key:
# [1] = Cytotoxicity against human PC3 cells measured after 72 hrs by MTT assay; format: functional, cell-based; conditions: PC-3, 72 h
# [2] = Cytotoxicity against human SGC7901 cells measured after 72 hrs by MTT assay; format: functional, cell-based; conditions: SGC-7901, 72 h
# [3] = Cytotoxicity against human A549 cells measured after 72 hrs by MTT assay; format: functional, cell-based; conditions: A549, 72 h
# [4] = Cytotoxicity against human MDA-MB-435S cells measured after 72 hrs by MTT assay; format: functional, cell-based
# [5] = Cytotoxicity against human L02 measured after 72 hrs by MTT assay; format: toxicity; conditions: L02 cells
# A549 = assay: Selectivity index, ratio of IC50 for human L02 cells to IC50 for human A549 cells; format: functional
# SGC-7901 = assay: Selectivity index, ratio of IC50 for human L02 cells to IC50 for human SGC7901 cells; format: functional
Structure (SMILES),IC50 [1] [µM],IC50 [2] [µM],IC50 [3] [µM],IC50 [4] [µM],IC50 at 72 h [5] [µM],Ratio IC50 (A549),Ratio IC50 (SGC-7901)
CCSc1cccc(C(=O)O[C@@H]2O[C@@H]3O[C@]4(C)CC[C@H]5[C@H](C)[C@H](OC(=O)c6cccc(SCC)c6)C[C@@H]([C@H]2C)[C@@]35OO4)c1,30,74.2,44.4,112,,,
C[C@@H]1[C@H](O)C[C@H]2[C@@H](C)C(=O)O[C@@H]3O[C@]4(C)CC[C@@H]1[C@]32OO4,,,80.4,21.9,146,1.8,
CCSc1cccc(C(=O)O[C@@H]2O[C@@H]3O[C@]4(C)CC[C@H]5[C@H](C)[C@H](O)C[C@@H]([C@H]2C)[C@@]35OO4)c1,,,1440,120,,,
C[C@@H]1[C@H](OC(=O)c2cccc(SCc3ccccc3)c2)C[C@H]2[C@@H](C)[C@H](OC(=O)c3cccc(SCc4ccccc4)c3)O[C@@H]3O[C@]4(C)CC[C@@H]1[C@]32OO4,,,223,289,,,
C[C@@H]1[C@H](O)C[C@H]2[C@@H](C)[C@H](OC(=O)c3cccc(SCc4ccccc4)c3)O[C@@H]3O[C@]4(C)CC[C@@H]1[C@]32OO4,146,,95,223,,,
CCCCSc1cccc(C(=O)O[C@@H]2O[C@@H]3O[C@]4(C)CC[C@H]5[C@H](C)[C@H](O)C[C@@H]([C@H]2C)[C@@]35OO4)c1,464,173,96.1,,,,
C[C@@H]1[C@H](O)C[C@H]2[C@@H](C)[C@H](OC(=O)c3cccc(SC4CCCCC4)c3)O[C@@H]3O[C@]4(C)CC[C@@H]1[C@]32OO4,204,553,33.3,29.6,,,
COc1ccc(Sc2cccc(C(=O)O[C@@H]3O[C@@H]4O[C@]5(C)CC[C@H]6[C@H](C)[C@H](OC(=O)c7cccc(Sc8ccc(OC)cc8)c7)C[C@@H]([C@H]3C)[C@@]46OO5)c2)cc1,30.5,6,4.3,108,69.2,16.1,11.5
CCCCSc1cccc(C(=O)O[C@@H]2O[C@@H]3O[C@]4(C)CC[C@H]5[C@H](C)[C@H](OC(=O)c6cccc(SCCCC)c6)C[C@@H]([C@H]2C)[C@@]35OO4)c1,115,85,107,,,,
COc1ccc(Sc2cccc(C(=O)O[C@@H]3O[C@@H]4O[C@]5(C)CC[C@H]6[C@H](C)[C@H](O)C[C@@H]([C@H]3C)[C@@]46OO5)c2)cc1,13,7.1,1.6,124,80.2,50.1,11.3
O=c1[nH]cc(F)c(=O)[nH]1 [FLUOROURACIL],,,6.8,15.2,25.9,3.8,2.2

# From ChEMBL document CHEMBL3872224, “Synthesis and cytotoxicity of novel artemisinin derivatives containing sulfur atoms” (Eur J Med Chem, 2016)
